Marks after values point to notes of the source that are not given here.
Columns and labels:
Format in all cases: in vivo
Conditions in all cases: 100 = 100% disease control
Septoria nodorum = assay: Test F: wheat glume blotch on wheat seedlings, sprayed the day before inoculation, visual disease rating
Procedure, shortened: (§1)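 Ratings reflect a 200 ppm spray (≈500 g/ha) unless marked as 40 ppm. Plants were sprayed to run-off. The spray suspension was acetone/purified water 50/50 containing 250 ppm Trem 014, after first dissolving compound in acetone at 3% of final volume.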

[1] = test system: Puccinia recondita f. sp. tritici; assay: Test I: wheat leaf rust on wheat seedlings, sprayed the day before inoculation, visual disease rating
Procedure, shortened: as §1

[2] = test system: Erysiphe graminis f. sp. tritici; assay: Test J: wheat powdery mildew on wheat seedlings, sprayed the day before inoculation, visual disease rating
Procedure, shortened: as §1

Septoria tritici = assay: Test G: wheat leaf blotch on wheat seedlings, sprayed the day before inoculation, visual disease rating
Procedure, shortened: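 Wheat seedlings were sprayed with compound suspensions, 200 ppm unless starred (40 ppm). After next-day spore inoculation, plants spent 48 h saturated at 24° C, then 19 days at 20° C, when disease was rated visually.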

Alternaria solani = assay: Test D: tomato early blight, sprayed the day before inoculation, visual disease rating
Procedure, shortened: as §1

[3] = test system: Puccinia recondita f. sp. tritici; assay: Test H: wheat leaf rust, test suspension sprayed after inoculation of wheat seedlings, visual disease rating
Procedure, shortened: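 Wheat seedlings inoculated with P. recondita spores, held 24 h saturated at 20 °C, then 2 days in growth chamber at 20 °C; compound suspension (acetone/water with Trem 014) sprayed to run-off afterwards. Rated visually; 200 ppm (≈500 g/ha) unless marked *, which denotes 40 ppm.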

Botrytis cinerea = assay: Test C: tomato Botrytis on tomato seedlings, sprayed the day before inoculation, visual disease rating
Procedure, shortened: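 Disease scored by eye on tomato seedlings inoculated with Botrytis cinerea a day after treatment. Treatment was a run-off spray at 200 ppm (equivalent to 500 g/ha), or 40 ppm where marked, in acetone/water carrying 250 ppm Trem 014.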

[4] = 200 ppm, 0 = no control relative to controls

Row | Compound | Test F disease control rating (Septoria nodorum; [4]) | Test I disease control rating [1, 4] | Test J disease control rating [2, 4] | Test G disease control rating (Septoria tritici; [4]) | Test D disease control rating (Alternaria solani; [4]) | Test H disease control rating [3, 4] | Test C disease control rating (Botrytis cinerea; [4]) | other results
1 | Cc1ccc(-n2c(Cl)nc(Br)c2-c2c(F)ccc(F)c2Cl)cc1 [compound 464] |  |  |  |  |  |  |  | Test F disease control rating (Septoria nodorum; 40 ppm (marked *)): 0* %; Test I disease control rating ([1]; 40 ppm (marked *)): 99* %; Test J disease control rating ([2]; 40 ppm (marked *)): 100* %; Test G disease control rating (Septoria tritici; 40 ppm (marked *)): 72* %; Test D disease control rating (Alternaria solani; 40 ppm (marked *)): 89* %; Test H disease control rating ([3]; 40 ppm (marked *)): 0* %; Test C disease control rating (Botrytis cinerea; 40 ppm (marked *)): 99* %
2 | Fc1ccc(F)c(-c2c(Cl)nc(Cl)n2Cc2ccc(Cl)cc2)c1F [compound 285] |  |  |  |  |  |  |  | Test F disease control rating (Septoria nodorum; 200 ppm, 0 = no control): 83%; Test I disease control rating ([1]; 200 ppm, 0 = no control): 100%; Test J disease control rating ([2]; 200 ppm, 0 = no control): 100%; Test G disease control rating (Septoria tritici; 200 ppm, 0 = no control): 94%; Test D disease control rating (Alternaria solani; 200 ppm, 0 = no control): 85%; Test H disease control rating ([3]; 200 ppm, 0 = no control): 98%; Test C disease control rating (Botrytis cinerea; 200 ppm, 0 = no control): 99%
3 | Fc1cc(F)c(-c2c(Cl)ncn2-c2ccc(OC(F)(F)F)cc2)c(F)c1 [compound 587] | 0% | 0% | 97% | 97% | 80% | 7% | 25% | 
4 | Cc1nc(Cl)c(-c2c(F)ccc(F)c2F)n1-c1cccc(F)c1 [compound 369] | 98% | 99% | 99% | 92% | 100% | 74% | 99% | 
5 | Cc1nc(Cl)c(-c2c(F)ccc(F)c2F)n1Cc1ccc(Cl)cc1 [compound 293] |  |  |  |  |  |  |  | Test F disease control rating (Septoria nodorum; 200 ppm, 0 = no control): 0%; Test I disease control rating ([1]; 200 ppm, 0 = no control): 99%; Test J disease control rating ([2]; 200 ppm, 0 = no control): 100%; Test G disease control rating (Septoria tritici; 200 ppm, 0 = no control): 95%; Test D disease control rating (Alternaria solani; 200 ppm, 0 = no control): 91%; Test H disease control rating ([3]; 200 ppm, 0 = no control): 6%; Test C disease control rating (Botrytis cinerea; 200 ppm, 0 = no control): 99%
6 | C=Cc1nc(Cl)c(-c2c(F)ccc(OC)c2F)n1-c1cccc(OC(F)F)c1 [Compound 583, 4-chloro-1-[3-(difluoromethoxy)phenyl]-5-(2,6-difluoro-3-methoxyphenyl)-2-ethenyl-1H-imidazole] |  |  |  |  |  |  |  | pest or weed control at 200 ppm (Septoria nodorum; Parastagonospora nodorum, 264 h, 200 ppm, 0 = no control relative to controls): 0%; pest or weed control at 200 ppm ([1]; Puccinia recondita, 168 h, 200 ppm, 0 = no control relative to controls): 85%; pest or weed control at 200 ppm ([2]; Blumeria graminis, 168 h, 200 ppm, 0 = no control relative to controls): 83%; pest or weed control at 200 ppm (Septoria tritici; Zymoseptoria tritici, 504 h, 200 ppm, 0 = no control relative to controls): 94%; pest or weed control at 200 ppm (Alternaria solani; Alternaria solani, 168 h, 200 ppm, 0 = no control relative to controls): 97%; pest or weed control at 200 ppm ([3]; Puccinia recondita, 96 h, 200 ppm, 0 = no control relative to controls): 0%; pest or weed control at 200 ppm (Botrytis cinerea; Botrytis cinerea, 120 h, 200 ppm, 0 = no control relative to controls): 99%
7 | Fc1cc(-n2c(Cl)nc(Cl)c2-c2ccc(Br)cn2)ccc1Cl [compound 487] | 0% | 78% | 0% | 88% | 0% | 0% | 96% | 
8 | Fc1cc(-n2cnc(Br)c2-c2c(F)ccc(F)c2F)ccc1Cl [compound 342] | 0% | 98% | 99% | 95% | 99% | 0% | 100% | 
9 | CCOc1ccc(F)c(-c2c(Cl)nc(C)n2-c2cccc(F)c2)c1F [compound 724] | 97% | 100% | 99% | 98% | 100% | 0% | 100% | 
10 | Fc1ccc(-n2cnc(Br)c2-c2c(F)cc(F)cc2F)cc1 [compound 507] | 0% | 100% | 98% | 88% | 95% | 0% | 100% | 
11 | COc1cc(F)c(-c2c(Cl)nc(C)n2-c2ccc(Cl)nc2)c(F)c1 [compound 739] | 100% | 100% | 100% | 100% | 100% | 100% | 100% | 
12 | COc1cc(OC)cc(-n2c(Cc3ccc(F)cc3F)cnc2C)c1 [compound 476] | 0% | 78% | 47% | 59% | 0% | 0% | 0% | 
13 | COc1ccc(F)c(-c2c(C)nc(Cl)n2-c2ccc(Cl)nc2)c1F [compound 733] | 100% | 100% | 100% | 100% | 100% | 41% | 100% | 
14 | COc1cc(OC)cc(-n2c(Cc3c(F)cc(F)cc3F)cnc2C)c1 [compound 533] | 0% | 92% | 82% | 49% | 0% | 15% | 0% | 
15 | Fc1cc(F)c(-c2c(Cl)nc(Br)n2-c2ccc(OC(F)F)cc2)c(F)c1 [compound 604] | 100% | 100% | 100% | 99% | 100% | 97% | 99% | 
16 | Cc1nc(Cl)n(-c2ccc(Cl)cn2)c1-c1c(F)cccc1F [compound 321] | 100% | 100% | 100% | 100% | 100% | 83% | 100% | 
17 | COc1cc(F)c(-c2c(Cl)nc(Cl)n2-c2ccc(C)cc2)c(F)c1Cl [compound 405] | 0% | 98% | 99% | 100% | 98% | 0% | 99% | 
18 | Fc1cc(-n2c(Cl)nc(Br)c2-c2c(F)ccc(F)c2Cl)ccc1Cl [compound 463] |  |  |  |  |  |  |  | Test F disease control rating (Septoria nodorum; 40 ppm (marked *)): 0* %; Test I disease control rating ([1]; 40 ppm (marked *)): 100* %; Test J disease control rating ([2]; 40 ppm (marked *)): 99* %; Test G disease control rating (Septoria tritici; 40 ppm (marked *)): 95* %; Test D disease control rating (Alternaria solani; 40 ppm (marked *)): 99* %; Test H disease control rating ([3]; 40 ppm (marked *)): 0* %; Test C disease control rating (Botrytis cinerea; 40 ppm (marked *)): 99* %
19 | COc1cc(F)c(-c2c(Cl)nc(Br)n2-c2cccc(OC(F)F)c2)c(F)c1 [compound 545] | 98% | 100% | 99% | 99% | 100% | 27% | 100% | 
20 | CC(=O)Nc1ccc(-n2c(Cl)nc(Cl)c2-c2c(F)cccc2F)cc1 [compound 637] |  |  |  |  |  |  |  | Test F disease control rating (Septoria nodorum; 40 ppm (marked *)): 0* %; Test I disease control rating ([1]; 40 ppm (marked *)): 65* %; Test J disease control rating ([2]; 40 ppm (marked *)): 0* %; Test G disease control rating (Septoria tritici; 40 ppm (marked *)): 92* %; Test D disease control rating (Alternaria solani; 40 ppm (marked *)): 0* %; Test H disease control rating ([3]; 40 ppm (marked *)): 0* %; Test C disease control rating (Botrytis cinerea; 40 ppm (marked *)): 97* %
21 | 3-[4-[4-chloro-2-methyl-1-(4-methylphenyl)-1H-imidazol-5-yl]-3,5-difluorophenoxy]-N-methyl-1-propanamide hydrochloride [Compound 734] | 99% | 100% | 95% | 99% | 99% | 41% | 100% | 
22 | COc1ccc(F)c(-c2c(Cl)ncn2Cc2ccc(Cl)cc2)c1F [compound 270] |  |  |  |  |  |  |  | Test F disease control rating (Septoria nodorum; 200 ppm, 0 = no control): 98%; Test I disease control rating ([1]; 200 ppm, 0 = no control): 99%; Test J disease control rating ([2]; 200 ppm, 0 = no control): 96%; Test G disease control rating (Septoria tritici; 200 ppm, 0 = no control): 86%; Test D disease control rating (Alternaria solani; 200 ppm, 0 = no control): 100%; Test H disease control rating ([3]; 200 ppm, 0 = no control): 0%; Test C disease control rating (Botrytis cinerea; 200 ppm, 0 = no control): 100%
23 | COc1ccc(F)c(-c2c(Cl)nc(Cl)n2-c2ccc(Cl)c(F)c2)c1F [compound 392] | 100% | 99% | 100% | 97% | 100% | 60% | 100% | 
